Measurements reported in US20080248032A1, “COMPOSITIONS AND METHODS FOR PROTECTION AGAINST CARDIAC AND/OR CENTRAL NERVOUS SYSTEM TISSUE INJURY BY INHIBITING SPHINGOSINE-1-PHOSPHATE LYASE” (CHILDREN'S HOSPITAL & RESEARCH CENTER AT OAKLAND, priority 2006, published 2008).
Where “and” joins values, the source holds several entries; their conditions need not be identical. Identical values can stand only once.

What was measured:
[1] = system: ischemia/reperfusion (I/R) injury; assay: Langendorff isolated heart ischemia/reperfusion, hearts from THI-treated mice; format: in vivo, C57BL6 male mice
Description: C57BL6 male mice were given THI in the water supply for 3 days. […] This example describes use of an isolated perfused heart model system for assessing cardioprotective effects of SPL inhibitors. […] Platinum electrodes connected to a stimulus generator are used to pace hearts at 360 beats/min. […] The balloon is inserted through the left atrium into the left ventricle, and pressures are recorded continuously on a chart recorder. Coronary flow is measured by collecting effluent from the coronary sinus. Noninvasive measurement of LV size and function are performed using standard echocardiographic methods in unanesthetized mice. LV dimensions, fractional shortening and ejection fraction are calculated before and at the end of a treatment period, before sacrifice in all animals.

SPL induced apoptosis = conditions: cells overexpressing SPL; cited from earlier work
[2] = system: HEK293 kidney cells stably overexpressing human SPL (hSPL); assay: Viability by MTT assay with daunorubicin, vector vs hSPL cells; format: cell-based; conditions: hSPL cells vs vector control; FIG. 2
Description: In an additional experiment, HEK293 cells expressing human SPL or vector control were treated with daunorubicin (DNR), and viability was determined by MTT assay. This assay relies on reduction of 3-(4,5-dimethylthiazol-2-yl)-2,5-diphenyl tetrazolium bromide (MTT reagent) by viable cells.

wildtype cells = assay: Sphingosine sensitivity of yeast growth, wildtype; format: cell-based, Saccharomyces cerevisiae; conditions: 10 μM sphingosine
Text: (§1) A further test for SPL activity may be based upon functional complementation in the bst1Δ strain. It has been found, within the context of the present invention, that bst1Δ cells are highly sensitive to D-erythro-sphingosine. […] Such a level of sphingosine has no effect on the growth of wildtype cells.
(§2) A further test for SPL activity may be based upon functional complementation in the bst1Δ strain of Saccharomyces cerevisiae (Saba et al., 1997 J. Biol. Chem. 272:26087). It was been found, within the context of the presently disclosed embodiments, that bst1Δ cells were highly sensitive to D-erythro-sphingosine. […] Such a level of sphingosine had no effect on the growth of wildtype cells.

bst1Δ cells = assay: Sphingosine sensitivity of yeast growth, bst1Δ strain; format: cell-based, Saccharomyces cerevisiae; conditions: concentrations as low as 10 μM sphingosine
Text: as §1, §2

[3] = system: HEK294 cells expressing human SPL cDNA construct (hSPL); assay: Viability by MTT assay with doxorubicin, vector vs hSPL cells; format: cell-based; conditions: cells overexpressing SPL vs pcDNA3 vector; 24 h or 48 h; FIG. 1
Description: HEK294 cells expressing either pcDNA3 vector (PC) or a human SPL cDNA construct (hSPL) were incubated for 24 h (black bars) or 48 h (white bars) with doxorubicin, harvested and viability was determined by MTT assay. (Mosmann, J Immunol Methods, 1983, 65(1-2): 55-63).

## CC(=O)c1nc(C(O)C(O)C(O)CO)c[nH]1 (centres unmarked) [THI, 2-acetyl-4-tetrahydroxybutylimidazole]
[1]; after 50 min ischemia, 40 min reperfusion, control heart 35%
  size of infarction (tissue uptake of tetrazolium red, TTC): 17%
[1]; after 50 min no-flow ischemia, 40 min reperfusion, control heart 52
  LVEDP (LV end-diastolic pressure): 34 mmHg
[1]; average of 3 animals
  LVDP % Recovery, Ave.: 59.2%
  LVDP Baseline, Ave.: 133.0 mmHg
  LVDP Reperf. 40′, Ave.: 79.7 mmHg
[1]; individual animals, 50 min no-flow ischemia, 40 min reperfusion
  LVDP (Left Ventricular Developed Pressure), Reperf. 40′: 52 mmHg and 88 mmHg and 99 mmHg
[1]; individual animals, Reperf. 40′ vs Baseline
  LVDP % Recovery: 42.6% and 64.2% and 70.7%
[1]; individual animals, before ischemia
  LVDP (Left Ventricular Developed Pressure), Baseline: 122 mmHg and 137 mmHg and 140 mmHg

## C[S+]([O-])c1ccc(-c2nc(-c3ccncc3)c(-c3ccc(F)cc3)[nH]2)cc1 (centres unmarked) [SB203580]
SPL induced apoptosis
  effect on SPL induced apoptosis: attenuation

## COc1cccc2c1C(=O)c1c(O)c3c(c(O)c1C2=O)C[C@@](O)(C(C)=O)C[C@@H]3O[C@H]1C[C@H](N)[C@H](O)[C@H](C)O1 [daunorubicin]
[2]
  sensitivity to daunorubicin (viability, MTT): more sensitive

## CCCCCCCCCCCCC/C=C/[C@@H](O)[C@@H](N)CO [sphingosine, D-erythro-sphingosine]
Wildtype cells
  growth of wildtype cells: no effect
bst1Δ cells
  growth of bst1Δ cells: completely inhibit

## COc1cccc2c1C(=O)c1c(O)c3c(c(O)c1C2=O)C[C@@](O)(C(=O)CO)C[C@@H]3O[C@H]1C[C@H](N)[C@H](O)[C@H](C)O1 [doxorubicin]
[3]
  cell survival in the presence of doxorubicin: significantly reduced

## Cc1ccc(C(=O)Cn2c3c(sc2=N)CCCC3)cc1 [pifithrin α]
SPL induced apoptosis
  effect on SPL induced apoptosis: attenuation
